Experimental findings from EP0585371B1, “AROMATIC OLIGOMERIC COMPOUNDS USEFUL AS MIMICS OF BIOACTIVE MACROMOLECULES” (RHONE-POULENC RORER INTERNATIONAL (HOLDINGS) INC., priority 1991, dated 1992) are described below.

The term IC50 denotes the concentration at which inhibition is half-maximal.

The test system of assay [1] is Vascular smooth muscle cells (VSMC). Kind of assay: Smooth Muscle Cell DNA Synthesis Assay (3H-thymidine incorporation in response to PDGF). The assay is classed as cell-based, swine. The conditions noted are these: inhibition of incorporation of 3H-thymidine in response to PDGF (9 ng/ml). The procedure: Vascular smooth muscle cells (VSMC) are isolated from swine coronaries obtained from swine hearts (Hatfield Meat Packing, Hatfield, PA) by enzyme dissociation as described by Gunther, et al., in J. Cell. Biol. 92, 289 (1982). Hyaluronidase (0.5 mg/ml) is added to facilitate dispersal. Cells are maintained in Earle's modified minimal essential medium (EMEM) with D-valine substituted for L-valine, supplemented with Hepes (10 mM), fetal bovine serum (FBS) (10%), penicillin (100 U/ml) and streptomycin ( 100 µg/ml).
The VSMC (passage 2) are plated at a density of 3 x 10^4 /cm2 (1x10^4 cells/well of 96 well tray) and after 48 hours of normal growth are arrested by replacement of above media with serum-free media for 48 hours consisting of: EMEM: Hams F12 (1:1), insulin, 5 µg/ml; transferrin, 35 µg/ml; selenite, 5 ng/ml; antibiotics and buffer (as above). The oligomer of the present invention to be tested (.01-10 µM) is added 2 hours prior to addition of porcine platelet derived growth factor (Research and Diagonostics, Minneapolis, MN), or FBS,in fresh serum-free media. Twenty-four hours later the oligomers are again added preceding addition of growth factors by 2 hours. […]
The VSMC are pulsed (5 hours) with ^3H-thymidine (Amersham, Arlington Heights, IL) (1 µCi/well of a 96 well plate; 42 Ci/mmole) added 15-18 hours after the last dose of growth factor. DNA synthesis is determined in NaOH extraction of ethanol/ether fixed cells as reported by Nemecek, et al., PNAS 83, 674 (1986). The cells are washed with phosphate bufferred saline (200 µl/well of 96-well tray. The cells are incubated with trichloroacetic acid (TCA) (10%, 200 ul) for 5 minutes to remove cytoplasmic label. After a rapid wash with cold 10% TCA, cells are fixed with ethanol/ether (2:1, 200 µl/well 5 min) and dried. The labeled DNA is extracted with 0.5 N NaOH (200 µl/well 30 min incubation, room temperature). The extracted DNA is neutralized (0.5 N HCI) and counted by liquid scintillation.
Statistical evaluation is as reported by Bilder, et al., Am. […] IC50 values are calculated by linear regression (RPL of RS1) from % inhibition of a minimum of 3 log fold dilutions of oligomers in the presence of PDGF (9 ng/ml) which give 70-80% of a maximal PDGF response. […] Percent inhibition is calculated by comparing the effect of PDGF alone (vehicle treated cultures + PDGF minus vehicle treated cultures without PDGF) to the effect of oligomers (oligomer + PDGF minus oligomer alone) and divided by the effect of PDGF times 100. i.e., = % inhibition = ((ΔVehicle + PDGF) - (Δoligomer + PDGF)/(Δvehicle + PDGF)) x 100.
(In general: Uptake of a labelled nucleoside into DNA is a usual measure of proliferation.)

In a further assay the target is T1, vWF Binding to Gp1b (Homo sapiens, UniProt P04275+P07359).
T1 construct: multimeric vWF (isolated from human plasma cryoprecipitate); Formalin-fixed platelets, prepared according to the method of MacFarlane; from tissue; host or cells: vWF from human plasma cryoprecipitate; GPIb on formalin-fixed platelets
T1 sequence (P04275 764-2813 limits assumed): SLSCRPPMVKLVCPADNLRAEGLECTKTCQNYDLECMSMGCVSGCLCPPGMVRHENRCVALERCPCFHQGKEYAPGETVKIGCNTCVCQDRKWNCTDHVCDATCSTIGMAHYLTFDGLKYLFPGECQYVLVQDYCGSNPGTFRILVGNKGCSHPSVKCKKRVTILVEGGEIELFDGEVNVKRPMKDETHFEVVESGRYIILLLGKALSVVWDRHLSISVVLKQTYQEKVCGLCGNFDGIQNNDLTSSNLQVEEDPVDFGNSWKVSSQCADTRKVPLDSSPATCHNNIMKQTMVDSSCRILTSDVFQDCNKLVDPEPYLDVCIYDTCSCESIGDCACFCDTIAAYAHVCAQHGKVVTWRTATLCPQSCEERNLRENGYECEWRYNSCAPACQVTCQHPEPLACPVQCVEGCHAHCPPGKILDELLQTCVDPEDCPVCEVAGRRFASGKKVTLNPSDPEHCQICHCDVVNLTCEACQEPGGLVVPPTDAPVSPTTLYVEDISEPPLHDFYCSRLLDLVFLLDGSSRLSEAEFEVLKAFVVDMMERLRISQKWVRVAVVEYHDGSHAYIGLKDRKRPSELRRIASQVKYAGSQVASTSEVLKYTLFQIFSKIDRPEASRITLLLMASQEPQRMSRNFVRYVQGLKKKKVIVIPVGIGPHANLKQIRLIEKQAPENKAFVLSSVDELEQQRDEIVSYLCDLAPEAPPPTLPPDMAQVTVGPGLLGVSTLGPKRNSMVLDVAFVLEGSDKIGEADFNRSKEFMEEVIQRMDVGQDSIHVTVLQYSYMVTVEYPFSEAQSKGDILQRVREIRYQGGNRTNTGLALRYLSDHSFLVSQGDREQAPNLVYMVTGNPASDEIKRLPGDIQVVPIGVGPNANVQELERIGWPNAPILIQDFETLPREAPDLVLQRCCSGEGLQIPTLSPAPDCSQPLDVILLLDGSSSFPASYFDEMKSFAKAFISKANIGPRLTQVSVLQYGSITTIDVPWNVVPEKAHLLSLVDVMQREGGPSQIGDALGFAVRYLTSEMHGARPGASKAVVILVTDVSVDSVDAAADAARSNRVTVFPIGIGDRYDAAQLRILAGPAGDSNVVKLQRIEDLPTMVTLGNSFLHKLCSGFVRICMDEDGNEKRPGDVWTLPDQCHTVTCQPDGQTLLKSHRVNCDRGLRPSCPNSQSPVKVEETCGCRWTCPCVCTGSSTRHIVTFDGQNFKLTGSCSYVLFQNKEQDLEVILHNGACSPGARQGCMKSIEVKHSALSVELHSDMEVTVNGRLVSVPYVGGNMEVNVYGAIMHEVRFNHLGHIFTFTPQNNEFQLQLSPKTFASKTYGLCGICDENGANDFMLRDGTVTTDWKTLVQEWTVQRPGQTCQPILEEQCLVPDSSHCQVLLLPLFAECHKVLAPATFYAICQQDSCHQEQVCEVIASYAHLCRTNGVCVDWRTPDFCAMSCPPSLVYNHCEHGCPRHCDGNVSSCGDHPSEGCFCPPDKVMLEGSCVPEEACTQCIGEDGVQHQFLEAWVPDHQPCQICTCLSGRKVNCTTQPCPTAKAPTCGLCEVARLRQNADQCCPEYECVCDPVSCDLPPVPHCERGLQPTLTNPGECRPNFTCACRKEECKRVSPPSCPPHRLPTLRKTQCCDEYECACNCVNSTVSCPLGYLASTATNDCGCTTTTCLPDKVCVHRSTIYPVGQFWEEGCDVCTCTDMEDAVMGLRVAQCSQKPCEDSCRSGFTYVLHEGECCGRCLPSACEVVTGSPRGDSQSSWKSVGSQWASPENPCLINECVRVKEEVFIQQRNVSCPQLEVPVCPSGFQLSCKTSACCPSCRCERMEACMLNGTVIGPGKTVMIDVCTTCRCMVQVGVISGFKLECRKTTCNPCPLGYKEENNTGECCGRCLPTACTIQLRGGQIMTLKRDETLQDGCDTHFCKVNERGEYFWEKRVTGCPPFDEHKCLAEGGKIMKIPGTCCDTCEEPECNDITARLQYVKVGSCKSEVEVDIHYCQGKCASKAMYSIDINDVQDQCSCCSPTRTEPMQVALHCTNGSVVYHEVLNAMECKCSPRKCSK
T1 sequence (P07359 17-652): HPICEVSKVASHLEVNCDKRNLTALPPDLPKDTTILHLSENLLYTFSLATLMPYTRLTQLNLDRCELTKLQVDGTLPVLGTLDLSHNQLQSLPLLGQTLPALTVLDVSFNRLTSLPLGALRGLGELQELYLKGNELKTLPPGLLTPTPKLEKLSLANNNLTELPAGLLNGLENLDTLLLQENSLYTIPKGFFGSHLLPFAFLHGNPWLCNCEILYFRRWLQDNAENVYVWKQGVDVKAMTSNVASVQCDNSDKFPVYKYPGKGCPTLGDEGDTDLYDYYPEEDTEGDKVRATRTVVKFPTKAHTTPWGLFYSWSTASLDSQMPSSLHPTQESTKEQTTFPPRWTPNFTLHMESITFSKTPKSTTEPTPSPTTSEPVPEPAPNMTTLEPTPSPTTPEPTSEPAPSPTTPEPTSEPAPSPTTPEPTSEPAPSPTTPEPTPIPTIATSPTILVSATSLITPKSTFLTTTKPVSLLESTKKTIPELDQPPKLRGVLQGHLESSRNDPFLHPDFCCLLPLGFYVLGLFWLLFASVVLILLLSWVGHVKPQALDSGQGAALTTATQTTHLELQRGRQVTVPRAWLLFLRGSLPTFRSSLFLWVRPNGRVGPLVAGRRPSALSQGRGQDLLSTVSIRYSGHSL
The experiment in a line: Inhibition of ristocetin-induced binding of 125I-vWF to formalin-fixed platelets. The conditions noted are these: at 100 µg/ml; ristocetin 1.0 mg/ml. The procedure: The binding of vWf (vonWillebrand Factor) to glycoprotein Ib is measured in one of two experimental systems, in the presence of either ristocetin or botrocetin as modulators of binding. The ristocetin modulated binding is described herein.
Formalin-fixed platelets, prepared according to the method of MacFarlane, D. et al., Thromb. Diath. Haemorrh. 34, 306-308 (1975), were preincubated at room temperature for 15 minutes with specified dilutions of oligomers according to the present invention. Ristocetin, (Sigma, St. Louis, MO) diluted to a final concentration of 1.0 mg/ml, and ^125I-labelled multimeric vWF (isolated from human plasma cryoprecipitate according to the method of Fulcher, C.A. et al. Proc. Natl. Acad. Sci. USA, 79, 1648-1652 (1982), and labelled according to the method of Fraker, P.J. et al. Biochem. Biophys. Res. Commun., 80, 849-857 (1978)) were then added to the incubation mixture, and the amount of ^125I- vWF bound to the platelets was determined. ^125I-vWF binding to the platelets was referenced against 100% binding which was defined as the amount of ^125I- vWF bound in the absence of added oligomer compound. The method for measuring vWF binding is reported in detail in Ruggeri et al., J. Clin. Invest., 72, 1-12, (1983), herein incorporated by reference.

The test system of the next assay is normal pooled plasma. The experiment in a line: Anticoagulation activity, Activated Partial Thromboplastin Time (APTT) test. The note with it: concentration required to double clotting time. The essentials:
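Normal pooled plasma was mixed with compound in 50 mM Tris-HCl, pH 7.5, and held at 37 °C for 2.5 min. Actin-activated cephaloplastin was added for 5 min, then 35 mM CaCl, and clotting time was read photometrically. Over about .025–1 mg/ml, the concentration doubling clotting time was found by linear interpolation.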

In the case of `Cc1cc(O)c(Cc2cc(O)c(Cc3cc(O)c(Cc4cc(O)c(Cc5cc(O)c(Cc6cc(O)c(Cc7cc(O)c(Cc8cc(O)ccc8CCC(=O)O)cc7CCC(=O)O)cc6CCC(=O)O)cc5CCC(=O)O)cc4CCC(=O)O)cc3CCC(=O)O)cc2CCC(=O)O)cc1CCC(=O)O` [Ex 4, 5-[4-[4-[4-[4-[4-[4-[[2-(2-carboxyethyl)-5-hydroxy]benzyl]-[2-(2-carboxyethyl)-5-hydroxy]benzyl]-[2-(2-carboxyethyl)-5-hydroxy]benzyl]-[2-(2-carboxyethyl)-5-hydroxy]benzyl]-[2-(2-carboxyethyl)-5-hydroxy]benzyl]-[2-(2-carboxyethyl)-5-hydroxy]benzyl]-[2-(2-carboxyethyl)-5-hydroxy]benzyl]-4-hydroxy-2-methylhydrocinnamic acid], the IC50 in assay [1] came out at 1.6 µM. Besides, the “Ristocetin-Induced Inhibition of vWF Binding to Gp1b” value at vWF Binding to Gp1b amounted to 50% at 100 µg/ml. Moreover, the “APTT ICDCT” value with normal pooled plasma was found to be 430 µg/mL.
